Molecules are shown by their SMILES.

This note sets out measurements from patent US11708348B2, “Protease inhibitors for treatment of coronavirus infections” (The Scripps Research Institute, priority 2021, dated 2023).

In the first test the test system is SARS-CoV-2 strain USA-WA1/2020. Kind of test: microbe, parasite or virus in culture. The format is cell-based. Conditions: Severe acute respiratory syndrome coronavirus 2, HeLa-ACE2, 24 h, HeLa-ACE2 cells, SARS-CoV-2 infection, 24 h; given as bound; read-out: EC50, uM (Hela).
On to `O=C(NC12CC(F)(C1)C2)C(=O)N[C@]1(C(=O)N[C@@H](C[C@@H]2CCNC2=O)C(=O)COC(F)(F)F)C[C@H]1C1CC1` [Compound 579, N1-(3-fluorobicyclo-[1.1.1]pentan-1-yl)-N2-((1S,2R)-2-(((S)-3-oxo-1-((S)-2-oxopyrrolidin-3-yl)-4-(trifluoromethoxy)butan-2-yl)carbamoyl)-[1,1′-bi(cyclopropan)]-2-yl)oxalamide], for which the EC50 was more than 1 µM.

Still in this test, the particulars now being: Severe acute respiratory syndrome coronavirus 2, HeLa-ACE2, 24 h, HeLa-ACE2 cells, SARS-CoV-2 infection, 24 h; read-out: EC50, uM (Hela).
For the compound `CC1(NC(=O)C(=O)N2CC3(CC3)C[C@H]2C(=O)N[C@@H](C[C@@H]2CCNC2=O)C(=O)COC(F)(F)F)CC1` [Compound 571, (S)-5-(2-((l-methylcyclopropyl)-amino)-2-oxoacetyl)-N-((S)-3-oxo-1-((S)-2-oxopyrrolidin-3-yl)-4-(trifluoromethoxy)butan-2-yl)-5-azaspiro[2.4]-heptane-6-carboxamide], the EC50 is 0.05 to 0.2 µM.

On to `O=C1NCC[C@H]1C[C@H](NC(=O)[C@@H]1CC2(CC2)CN1C(=O)c1cc(C(F)F)on1)C(=O)COC(F)(F)F` [Compound 572, (S)-5-(5-(difluoromethyl)-isoxazole-3-carbonyl)-N-((S)-3-oxo-1-((S)-2-oxopyrrolidin-3-yl)-4-(trifluoromethoxy)butan-2-yl)-5-azaspiro[2.4]-heptane-6-carboxamide], for which the half-maximal effective concentration (EC50) is less than 0.05 µM.

As to `CC1(C[C@H](NC(=O)C(=O)NC23CC(F)(C2)C3)C(=O)N[C@@H](C[C@@H]2CCNC2=O)C(=O)COC(F)(F)F)CCC1` [Compound 573, N1-(3-fluorobicyclo[1.1.1]pentan-1-yl)-N2-((S)-3-(1-methylcyclobutyl)-1-oxo-1-(((S)-3-oxo-1-((S)-2-oxopyrrolidin-3-yl)-4-(trifluoromethoxy)butan-2-yl)amino)propan-2-yl)oxalamide], the EC50 is less than 0.05 µM.

For the compound `CC(C)(C)NC(=O)C(=O)N1C[C@@H]2CCC[C@@H]2[C@H]1C(=O)N[C@@H](Cc1ccc[nH]c1=O)C(=O)COC(F)(F)F` [Compound 574, (1S,3aR,6aS)-2-(2-(tert-butylamino)-2-oxoacetyl)-N-((S)-3-oxo-1-(2-oxo-1,2-dihydropyridin-3-yl)-4-(trifluoromethoxy)butan-2-yl)octahydrocyclo-penta[c]pyrrole-1-carboxamide], the EC50 lay in the range of 0.5 to 1 µM.

On to `COc1ccccc1NC(=O)C(=O)N1CC2(CC2)C[C@H]1C(=O)N[C@@H](C[C@@H]1CCNC1=O)C(=O)COC(F)(F)F` [Compound 575, (S)-5-(2-((2-methoxyphenyl)-amino)-2-oxoacetyl)-N-((S)-3-oxo-1-((S)-2-oxopyrrolidin-3-yl)-4-(trifluoromethoxy)butan-2-yl)-5-azaspiro[2.4]-heptane-6-carboxamide], for which the EC50 is 0.5 to 1 µM.

As for `O=C(Nc1ccccc1C(F)(F)F)C(=O)N1CC2(CC2)C[C@H]1C(=O)N[C@@H](C[C@@H]1CCNC1=O)C(=O)COC(F)(F)F` [Compound 576, (S)-N-((S)-3-oxo-1-((S)-2-oxopyrrolidin-3-yl)-4-(trifluoromethoxy)butan-2-yl)-5-(2-oxo-2-((2-(trifluoromethyl)-phenyl)amino)acetyl)-5-azaspiro[2.4]-heptane-6-carboxamide], the EC50 is less than 0.05 µM.

Regarding `CC1(C[C@H](NC(=O)C(=O)NC2(C)CC2)C(=O)N[C@@H](C[C@@H]2CCNC2=O)C(=O)COC(F)(F)F)CC1` [Compound 577, Nl-(l-methylcyclo-propyl)-N2-(3-(1-methylcyclopropyl)-1-oxo-1-(((S)-3-oxo-1-((S)-2-oxopyrrolidin-3-yl)-4-(trifluoromethoxy)butan-2-yl)amino)propan-2-yl)oxalamide], the EC50 is less than 0.05 µM.

Turning to `CC1(CC(NC(=O)C(=O)NC2CC2)C(=O)N[C@@H](C[C@@H]2CCNC2=O)C(=O)COC(F)(F)F)CC1` (stereo partly drawn) [Compound 578, N1-cyclopropyl-N2-(3-(1-methylcyclopropyl)-1-oxo-1-(((S)-3-oxo-1-((S)-2-oxopyrrolidin-3-yl)-4-(trifluoromethoxy)butan-2-yl)amino)propan-2-yl)oxalamide], the EC50 is less than 0.05 µM.
